From patent EP4741395A1, “NOVEL COMPOUND SENSITIVE TO NITROGEN MONOXIDE AND PHARMACEUTICAL COMPOSITION COMPRISING SAME” (Omniamed Co. Ltd, priority 2023, dated 2025)

Legend:
[1] = Hematological toxicity evaluation after single oral administration (routine blood test); settings: single oral dose 200 mg/kg and 800 mg/kg, compared with the normal group
Raw 264.7 cell line = test: NO scavenging activity in LPS-treated immune cells (Griess reagent); type: cell-based; settings: Mus musculus, RAW264.7, Raw 264.7, LPS 500 ng/mL, 24 hours, read-out: NO Scavenging Activity (%) (Mean±SD)
in vivo = test: in vivo
Experimental: Specifically, the experimental animals were twelve six-week-old C57BL/6 male mice. The experimental animals were housed in polycarbonate cages in groups of four, and had free access to food and water. The animal housing room was maintained at a temperature of 20±1°C and humidity of about 50±5%, with a constant 12-hour light/dark cycle. The experimental animals were acclimated to the animal room environment for one week, and then randomly divided into three groups of four animals each based on body weight.

IL-6 (Interleukin-6) = test: Inhibition of inflammatory cytokine secretion in LPS-treated immune cells (IL-6 sandwich ELISA); type: cell-based; settings: Mus musculus, RAW264.7, Raw 264.7, LPS 500 ng/mL, 24 hours, read-out: IL-6 Reduction Activity (%) (Mean±SD)
Experimental: Raw 264.7 cell line was seeded in a 48-well plate at a density of 8×10^4 cells/well, and cultured at 37°C in a DMEM medium including 10% FBS, 100 U/mL of penicillin and 100 µg/mL of streptomycin.
The medium was cultured overnight, and then replaced with a fresh medium including 10 µM of the pharmaceutical composition sensitive to nitrogen monoxide including the compound of each of Examples 1 and 11 to 13 and 500 ng/mL of LPS, and the fresh medium was cultured again for another 24 hours.
Lastly, the supernatant was collected, and then the level of IL-6 (Interleukin-6) expression was analyzed using a Sandwich enzyme-linked immunosorbent assay (ELISA). Specifically, a standard solution and 50 µL of the diluted supernatant were introduced to each well of a well plate coated with an antibody specific to IL-6, and after binding IL-6 to the immobilized antibody, the well was washed with a washing buffer, followed by a reaction with HRP as a secondary antibody for 30 minutes at room temperature. The well was washed three times with a washing buffer, then color was developed using TMB (3,3', 5,5'-tetramethyl benzidine) as a substrate, and the reaction was stopped using 1 M sulfuric acid to measure the degree of color development at an absorbance of 450 nm.

IFN-γ = IFN-γ reduction activity in Concanavalin A-treated splenocytes (quantitative ELISA); type: cell-based, C57BL/6 mouse; settings: Mus musculus, Splenocyte, Concanavalin A 5 µg/mL, 72 hours, read-out: IFN-γ Reduction Activity (%) (Mean±SD)
How it was run: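 Splenocytes from 8-week-old C57BL/6 mice at 5×10^6 cells/mL in RPMI 1640 with 10% FBS, stimulated with Concanavalin A (5 µg/mL) plus compound added concentration-dependently. Supernatant IFN-γ measured by quantitative ELISA after 72 h.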

[2] = Efficacy on collagen-induced rheumatoid arthritis (arthritis score); type: in vivo, DBA/1 male mice
Experimental: (§1) The experimental animals were 30 8-week-old DBA/1 male mice. […] The number of normal mice was set to five in order to minimize the number of experimental animals. The group administered with Compound (1) consisted of 5 to 6 mice, a minimal number required to obtain statistically meaningful data given the limited amount of the drug.
(§2) In order to establish a rheumatoid arthritis model, 100 µL of a mixture solution in which 2 mg/mL of chick type II collagen and 1 mg/mL of Complete Freund's Adjuvant (CFA) were mixed in a ratio of 1:1 was administered intradermally to each of the mouse tails. After 19 days, 100 µL of an emulsion in which 2 mg/mL of chick type II collagen and Incomplete Freund's Adjuvant (IFA) were mixed in a ratio of 1:1 was administered intradermally to each of the mouse tails.
The test substances of Table 23 were administered orally every day according to the drug dosing period and dosing frequency. As for the rheumatoid arthritis score (arthritis score), the score of each of the four paws was quantified according to the criteria shown in the following Table 24, and the individual scores were summed to generate the final score.
as §1, with “31” for “30”, “(11)” for “(1)”, “5” for “5 to 6”, “drug. Each of the remaining groups consisted of 7 mice, with two extra mice added to account for experimental error.” for “drug.”
as §2
Oral administration was conducted daily according to the dose, dosing frequency and dosing period of Table 25. Based on the criteria shown in Table 24, rheumatoid arthritis score for the four paws were quantified and summed to generate the score.

For `C[C@@H]1CCN(C(=O)CC#N)C[C@@H]1N(C)c1ncnc2c1ccn2C(=O)Nc1ccccc1N` [Example 1, N-(2-aminophenyl)-4-(((3R,4R)-1-(2-cyanoacetyl)-4-methylpiperidin-3-yl) (methyl)amino)-7H-pyrrolo[2,3-d]pyrimidine-7-carboxamide], the hematological toxicity responses [1] was “No hematological toxicity responses were observed”, the activity at 10 µM (Raw 264.7 cell line) was 77.4 ± 0.52% and the MTD at 4 days (in vivo; male, mouse, in vivo, po) was 1600 mg/kg. The mortality (in vivo; mice, oral once daily, 200, 400, 800, 1,600 mg/kg escalated daily) was “no mortality was observed”, the activity at 10 µM (IL-6 (Interleukin-6)) was 93.6 ± 0.6% and the activity at 10 µM (IFN-γ) was 91.5 ± 1.37%. The “alleviation of rheumatoid arthritis compared with tofacitinib” value ([2]; 30 mg/kg and 60 mg/kg oral once daily, entire period of the experiment) was “comparable to or higher than 40 mg/kg of tofacitinib”, the “average rheumatoid arthritis score compared with tofacitinib” value ([2]; 30 mg/kg oral once daily, FIG. 6) was “comparable to that of the group administered with 40 mg/kg of tofacitinib” and the “rheumatoid arthritis-alleviating efficacy (arthritis score)” value ([2]; 30 mg/kg oral once daily, day 42 to day 47 after disease induction, FIG. 6) was “no statistically significant alleviating efficacy was observed”. The “rheumatoid arthritis-alleviating efficacy (arthritis score)” value ([2]; 30 mg/kg oral once daily, day 49 to the end of the experiment (p<0.05), FIG. 6) was “statistically significant alleviating efficacy was observed again”, the “rheumatoid arthritis-alleviating efficacy (arthritis score)” value ([2]; 30 mg/kg oral once daily, from day 35 after disease induction (p<0.05), FIG. 6) was “Alleviating efficacy was observed” and the “rheumatoid arthritis-alleviating efficacy compared with tofacitinib” value ([2]; 60 mg/kg oral once daily, from day 33 after disease induction (p<0.01) to the end, FIG. 6) was “comparable to or higher than that of the group administered with 40 mg/kg of tofacitinib”.
